Source: patent US7179954B1, “Isolated nucleic acids coding for a nuclear base transporter and uses thereof” (Carnegie Insitution of Washington, priority 1999, dated 2007)

Tests used:
Type in all cases: cell-based
[1] = biological target: T1, PUP1 nuclear base transporter (Arabidopsis thaliana, UniProt Q9FZ96, S63G); test: Uptake of radioactively labelled adenine and cytosine by yeast strain MG887ura3-::pFL61-PUP1
T1 construct: The PUP1 protein expressed by the yeast strain MG887ura3^−::pFL61-PUP1; expressed in transfected cells; host or cells: Saccharomyces cerevisiae MG887ura3- (fcy2), plasmid pFL61-PUP1
Procedure: (§1) For measuring the rate of uptake the yeast strains MG887ura3^−::pFL61, MG887ura3^−::pFL61-PUP1 and their original strain Σ1278b (Dubois & Grenson, 1979, Mol. Gen. Genet. 175, 67–76) were cultured in complete medium (YPD) without uracil and with 2% glucose as carbon source up to an OD600 of 0.6 at 28° C. The cells were harvested at 3000 g, washed twice with water and brought to an OD600 of 12 with sodium phosphate buffer (100 mM, pH 4.5), 1% glucose. The cell suspension was stored in 100 μl portions on ice up to the beginning of the uptake measurements. Before the start of the uptake measurements the cells were pre-incubated at 30° C. for 2 minutes. The reaction was then started, by which 100 μl of radioactively labelled substrate solution was added to 100 μl cell suspension. The reaction mixture was incubated at 30° C. and after 30, 60, 120 and 180 seconds in each case 50 μl of suspension was withdrawn and placed in 4 ml of ice-cold water (in measurements over 180 seconds more cell suspension and substrate solution were correspondingly added). The cells were absorbed on to glass fibre filters and washed with 4 ml of ice-cold water. The radioactivity on the filters was finally ascertained in a liquid scintillation counter.
(§2) Substrate solution: For the substrate solution what is concerned is a 100 mM sodium phosphate buffer pH 4.5 with 1% glucose and 9.25 Bq/μl of radioactively labelled substrate (25–100 μM [^14C] adenine or [^14C] cytosine). In addition the substrate solution contains the unlabelled substrate, possible inhibitors and competitors in double end-concentration. For estimation of the optimum pH the pH value of the sodium phosphate buffer is also changed. When the influence of glucose on the uptake rate is measured neither the cell suspension nor the substrate solution contains glucose. Glucose is only added after starting the uptake measurements at the commencement of measuring at an end-concentration of 1%.
(§3) In Table 1 the uptake of radioactively labelled adenine and cytosine mediated by the PUP1 nuclear base transporter is indicated by the yeast strain MG887ura3^−::pFL61-PUP1. For calculation of the intracellular concentration the cell volume is estimated as four times the dry weight (Ninnemann et al., 1994, EMBO J. 15, 3464–3471). The uptake occurs against a concentration gradient.

[2] = biological target: T2, PUP1 nuclear base transporter (Arabidopsis thaliana, UniProt Q9FZ96); test: as above; conditions: initial concentration medium 200 μM; intracellular, cell volume estimated as four times the dry weight
T2 construct: The PUP1 protein expressed by the yeast strain MG887ura3^−::pFL61-PUP1; expressed in transfected cells; host or cells: Saccharomyces cerevisiae MG887ura3- (fcy2), plasmid pFL61-PUP1
Procedure: as §1, §2, §3

[3] = biological target: PUP1 (Arabidopsis thaliana, UniProt Q9FZ96, S63G); test: Voltage and current measurement in Xenopus oocytes expressing PUP1; set-up: a primer was used which demolishes the STOP codon of PUP1 and simultaneously inserts a NotI excision site; expressed in transfected cells; host or cells: Xenopus oocytes injected with in vitro transcribed RNA
Procedure: The one-way directed currents are measured as soon as adenine is added. The current strength is dependent on the concentration (bars indicate the current on the ordinate and the time on the abscissa).
The cDNA for PUP1 was excised with NotI and cloned in an oocyte expression vector containing untranslated 5′ and 3′ regions of the β-globin from Xenopus. The cDNA was then replicated by means of PCR. SP6 (from the oocyte vector) was used as upstream primer, as downstream primer a primer was used which demolishes the STOP codon of PUP1 and simultaneously inserts a NotI excision site. This PCR fragment was excised by NotI and HindIII and ligated into an oocyte expression vector which in addition contains behind the NotI excision site the gene for GFP (“green fluorescent protein” from the jellyfish). In that way an open reading-frame is constructed for a fusion protein from PUP1 and GFP. By insertion of the NotI excision site a linker with three base pairs coding for alanine is constructed. The plasmid was linearized with MIuI, and RNA was transcribed in vitro by means of SP6 polymerase and absorbed into water to about 1 ng/nl. Each oocyte (ripening stage 5 to 6) was injected with 50 nl. […]
For voltage measurement a glass electrode filled with 3M KCl was stuck into the oocyte. With a Dagan amplifier the potential was measured relative to the reference electrode. […]

[4] = biological target: T3, PUP2 (Arabidopsis thaliana, UniProt Q94GB1); test: Adenine transport by PUP2
T3 construct: expressed in transfected cells; host or cells: Saccharomyces cerevisiae (inferred)
T3 sequence (Q94GB1 1-347 isoform Q94GB1-2): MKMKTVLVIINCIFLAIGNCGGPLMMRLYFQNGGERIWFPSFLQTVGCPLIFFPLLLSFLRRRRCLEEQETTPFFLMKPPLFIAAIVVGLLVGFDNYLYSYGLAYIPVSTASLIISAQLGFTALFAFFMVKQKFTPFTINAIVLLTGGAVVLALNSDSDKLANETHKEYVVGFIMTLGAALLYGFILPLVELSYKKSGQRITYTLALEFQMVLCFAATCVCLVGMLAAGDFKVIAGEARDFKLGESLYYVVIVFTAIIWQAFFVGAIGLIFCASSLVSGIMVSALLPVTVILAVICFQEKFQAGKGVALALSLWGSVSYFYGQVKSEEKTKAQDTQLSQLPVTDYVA
Procedure: as §2

[5] = biological target: T4, FCY2 transporter (Saccharomyces cerevisiae, UniProt P17064); test: Adenine uptake by the yeast's own FCY2 transporter (competition experiment reference); conditions: substrate concentration 25 μM
T4 construct: in comparison to the yeast's own FCY2 transporter; endogenous in cells
T4 sequence (P17064 1-533): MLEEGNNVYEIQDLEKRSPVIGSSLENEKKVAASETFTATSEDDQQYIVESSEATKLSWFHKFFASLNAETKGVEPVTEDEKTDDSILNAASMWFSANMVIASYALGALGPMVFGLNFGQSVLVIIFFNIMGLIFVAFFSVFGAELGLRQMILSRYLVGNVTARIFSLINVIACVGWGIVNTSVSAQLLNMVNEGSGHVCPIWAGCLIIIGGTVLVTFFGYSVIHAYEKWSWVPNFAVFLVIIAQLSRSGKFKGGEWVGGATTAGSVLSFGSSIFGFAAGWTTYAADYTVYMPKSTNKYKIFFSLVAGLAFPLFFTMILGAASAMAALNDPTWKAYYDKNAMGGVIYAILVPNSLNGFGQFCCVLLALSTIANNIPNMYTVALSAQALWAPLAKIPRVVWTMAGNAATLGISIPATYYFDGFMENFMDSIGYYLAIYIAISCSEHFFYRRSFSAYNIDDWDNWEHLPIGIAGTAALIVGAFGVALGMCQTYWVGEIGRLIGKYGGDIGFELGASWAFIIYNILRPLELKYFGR
Procedure: as §1, with “The reaction mixture was incubated at 30° C. and after 30, 60, 120 and 180 seconds in each case 50 μl of suspension was withdrawn and placed in 4 ml of ice-cold water (in measurements over 180 seconds more cell suspension and substrate solution were correspondingly added). The cells were absorbed on to glass fibre filters and washed with 4 ml of ice-cold water.” left out
Substrate solution: For the substrate solution what is concerned is a 100 mM sodium phosphate buffer pH 4.5 with 1% glucose and 9.25 Bq/μl of radioactively labelled substrate (25–100 μM [^14C] adenine or [^14C] cytosine). […] When the influence of glucose on the uptake rate is measured neither the cell suspension nor the substrate solution contains glucose. […]

T1 sequence (Q9FZ96 whole entry S63G): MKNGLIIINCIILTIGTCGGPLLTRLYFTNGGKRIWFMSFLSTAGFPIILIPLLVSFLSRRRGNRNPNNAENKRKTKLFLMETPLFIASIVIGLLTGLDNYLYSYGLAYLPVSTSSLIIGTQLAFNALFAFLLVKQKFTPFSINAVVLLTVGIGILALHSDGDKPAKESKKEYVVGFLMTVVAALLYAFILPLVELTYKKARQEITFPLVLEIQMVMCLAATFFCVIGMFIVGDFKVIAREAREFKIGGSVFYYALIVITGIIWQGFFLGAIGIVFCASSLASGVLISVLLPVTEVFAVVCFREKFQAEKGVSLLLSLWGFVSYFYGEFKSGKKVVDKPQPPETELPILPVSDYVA
Chain of PUP1 (Q9FZ96 whole entry S63G): as above
T2 sequence (Q9FZ96 whole entry S63G): as above

Q: Which Enrichment factor ([1]; cells versus medium, initial concentration medium 200 μM) does the source give for `Nc1ncnc2nc[nH]c12` [Adenine, adenine] here?
A: The Enrichment factor was 15.

Q: And the “End conc. Medium” value ([1]; initial concentration medium 200 μM, yeast strain MG887ura3-::pFL61-PUP1)?
A: The value was 155 µM.

Q: And the “Uptake of radioactively labelled adenine (set at 100%)” value ([1]; substrate concentration 25 μM, PUP1 expressed in yeast)?
A: The value was 1.7 nmol.min^−1 .mg^−1 dry weight.

Q: What about the “End conc Cells” value [2] of the same molecule?
A: The value was 2350 µM.

Q: What about the “Effect on oocyte membrane potential” value ([3]; adenine in the bath solution, resting potential about -30 mV at pH 7.3) of the same molecule?
A: Its value is “provokes depolarization of the oocyte”.

Q: And the Effect on current ([3]; oocytes held at a voltage of -80 mV)?
A: Its Effect on current is “induces a current in one direction”.

Q: What about the “Transport by PUP2” value [4] of the same molecule?
A: Its value is “in a position to transport adenine”.

Q: And the “Uptake of radioactively labelled adenine (set at 100%)” value [5]?
A: Its value is 0.9 nmol.min^−1 .mg^−1 dry weight.
